Source: patent US20190269705A1, “METHODS AND MATERIALS FOR TREATING GRAFT VERSUS HOST DISEASE” (Regents of the University of Minnesota, priority 2017, published 2019)
Entries after “also recorded” stand apart in the source; their conditions may differ.

Tested on: Th1 cells
Assay: RNA-Seq and gene set enrichment analysis, Th1
Format: cell-based, mouse
Procedure: ATAC-Seq: Crude nuclei pellets were isolated as described elsewhere (see, e.g., Buenrostro et al., 2013 Nat Meth. 10(12):1213-1218) with modifications. Briefly, naïve CD4 T cells were skewed to Th1 and Th17 subsets in vitro with vehicle or in the presence of 500 nM CB839. At Day 5, T cells were re-isolated for CD4+ cells using Miltenyi CD4+ negative selection kit (Cat #: 130-104-454). 1×10^5 cells were removed for nuclei extraction in ATAC-Seq lysing buffer. Cells were exposed to Tn5+ adaptor proteins from Nextera DNA for 30 min at 37° C. and immediately placed on ice. Transposed eluate was amplified via PCR using Nextera DNA preparation kit (Illumina, Cat #: FC-121-1030), NEBNext High-fidelity 2× PCR mix (New England Labs, Cat #: M0541), and multiplexed (Illumina, Cat #: FC-121-1011). Samples were purified using Zymo DNA cleanup kit (Cat #: D4011). QC of samples was run on bioanalyzer before being sent for sequencing. RNA-Seq: Th1 and Th17 cells skewed with or without CB839 were isolated as previously described and total RNA extracted (Qiagen RNEasy Mini kit, Cat #: 74104). RNA was sent to VANTAGE core at Vanderbilt University and sequenced on HiSeq 2500. n=3 for each sample was analyzed. Samples were analyzed using the R program DESeq2. GSEA was performed using MSigDB.
Th1 and Th17 cells were skewed with or without CB839 over 5 days and total RNA extracted for RNAseq (Cat #: 74104). RNA was sent to VANderbilt Technologies for Advanced GEnomics (VANTAGE) core at Vanderbilt University. Libraries were prepared using 50 ng of total RNA using the NEBNext Ultra RNA Library Kit for Illumina (Cat #E7530) and sequenced on HiSeq3000 at 75 bp paired-end. Each sample was analyzed in triplicate. Sequencing reads were aligned against the Mouse GENCODE genome, Version M14 (Jan. 2017 freeze, GRCm38, Ensembl 89) using the Spliced Transcripts Alignment to a Reference (STAR) software (ref: 26187010 and 23104886). Reads were preprocessed and index using SAMtools (ref: 19505943). Mapped reads were assigned to gene features and quantified using featureCounts (ref: 24227677). Normalization and differential expression was performed using DESeq2 (Love et al., 2014). Skewed lymphocytes with and without CB839 were compared in both Th1 and Th17 groups. […] The top 200 most differentially expressed genes were used for unsupervised hierarchical cluster analysis and visualized using heatmap representations.

[1] = Th1 Cells: Decreased Pathways, HALLMARK_ALLOGRAFT_REJECTION
[2] = Th1 Cells: Decreased Pathways, HALLMARK_ANGIOGENESIS
[3] = Th1 Cells: Decreased Pathways, HALLMARK_APICAL_JUNCTION
[4] = Th1 Cells: Decreased Pathways, HALLMARK_APOPTOSIS
[5] = Th1 Cells: Decreased Pathways, HALLMARK_COMPLEMENT
[6] = Th1 Cells: Decreased Pathways, HALLMARK_EPITHELIAL_MESENCHYMAL_TRANSITION
[7] = Th1 Cells: Decreased Pathways, HALLMARK_ESTROGEN_RESPONSE_EARLY
[8] = Th1 Cells: Decreased Pathways, HALLMARK_INFLAMMATORY_RESPONSE
[9] = Th1 Cells: Decreased Pathways, HALLMARK_INTERFERON_GAMMA_RESPONSE
[10] = Th1 Cells: Decreased Pathways, HALLMARK_KRAS_SIGNALING_UP
[11] = Th1 Cells: Decreased Pathways, HALLMARK_UV_RESPONSE_DN
[12] = Th1 Cells: Increased Pathways, HALLMARK_DNA_REPAIR
[13] = Th1 Cells: Increased Pathways, HALLMARK_E2F_TARGETS
[14] = Th1 Cells: Increased Pathways, HALLMARK_ESTROGEN_RESPONSE_LATE
[15] = Th1 Cells: Increased Pathways, HALLMARK_G2M_CHECKPOINT
[16] = Th1 Cells: Increased Pathways, HALLMARK_GLYCOLYSIS
[17] = Th1 Cells: Increased Pathways, HALLMARK_IL2_STAT5_SIGNALING
[18] = Th1 Cells: Increased Pathways, HALLMARK_MITOTIC_SPINDLE
[19] = Th1 Cells: Increased Pathways, HALLMARK_MTORC1_SIGNALING
[20] = Th1 Cells: Increased Pathways, HALLMARK_MYC_TARGETS_V1
[21] = Th1 Cells: Increased Pathways, HALLMARK_P53_PATHWAY

`O=C(Cc1cccc(OC(F)(F)F)c1)Nc1ccc(CCCCc2nnc(NC(=O)Cc3ccccn3)s2)nn1` [CB839] was tested, and the “Pik3ip1 expression by RNA-Seq” value (Th1) was “most strongly downregulated”, the “compensation by GLS2 at the RNA level” value (Th1, CB839-treated) was “No compensation by GLS2 at the RNA level” and the “direction of the 200 genes with the most altered expression” value (Th1, CB839 vs vehicle) was “the majority showed increased expression”. The “gene set enrichment: cell cycle, mTORC1, Myc, IL2 signaling pathways” value (Th1, CB839 vs vehicle) was “upregulation of cell cycle, mTORC1, Myc, IL2 signaling, and glycolysis pathways; also recorded: upregulation of specific pathways including those related to cell cycle, mTORC1, Myc, and IL2 signaling”, the “# Genes in Overlap (k)” value [1] was 17 and the k/K [1] was 0.085. The “# Genes in Overlap (k)” value [2] was 6, the k/K [2] was 0.1667 and the “# Genes in Overlap (k)” value [3] was 16. For the same compound, the k/K [3] was 0.08, the “# Genes in Overlap (k)” value [4] was 13 and the k/K [4] was 0.0807. The “# Genes in Overlap (k)” value [5] was 18, the k/K [5] was 0.09 and the “# Genes in Overlap (k)” value [6] was 13. For the same compound, the k/K [6] was 0.065, the “# Genes in Overlap (k)” value [7] was 13 and the k/K [7] was 0.065. For the same compound, the “# Genes in Overlap (k)” value [8] was 18, the k/K [8] was 0.09 and the “# Genes in Overlap (k)” value [9] was 14. For the same compound, the k/K [9] was 0.07, the “# Genes in Overlap (k)” value [10] was 20 and the k/K [10] was 0.1. The “# Genes in Overlap (k)” value [11] was 11, the k/K [11] was 0.0764 and the “# Genes in Overlap (k)” value [12] was 28. The k/K [12] was 0.1867, the “# Genes in Overlap (k)” value [13] was 135 and the k/K [13] was 0.675. For the same compound, the “# Genes in Overlap (k)” value [14] was 30, the k/K [14] was 0.15 and the “# Genes in Overlap (k)” value [15] was 101. The k/K [15] was 0.505, the “# Genes in Overlap (k)” value [16] was 34 and the k/K [16] was 0.17. For the same compound, the “# Genes in Overlap (k)” value [17] was 37, the k/K [17] was 0.185 and the “# Genes in Overlap (k)” value [18] was 56. The k/K [18] was 0.28, the “# Genes in Overlap (k)” value [19] was 47 and the k/K [19] was 0.235. For the same compound, the “# Genes in Overlap (k)” value [20] was 43, the k/K [20] was 0.215 and the “# Genes in Overlap (k)” value [21] was 30. It also gave a k/K [21] of 0.15.
